Data from ChEMBL document CHEMBL1201862, “PubChem BioAssay data set” (2004).
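All cell lines were grown in 96-well plates and treated with compound for 48 hours. GI50: concentration for 50% inhibition of growth.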 The source made the active and inactive calls. Cut-off read from the data, not from the text of the source: active = GI50 up to about 1.1 µM and inactive = higher.

Tests used:
Assay in all cases: inhibition of tumour cell growth, NCI panel, 48 h
[1] = system: SF-268
[2] = system: HCC 2998
[3] = system: SK-OV-3
[4] = system: KM12
[5] = system: HT-29
[6] = system: SNB-19
[7] = system: SN12C
[8] = system: HOP-62
[9] = system: RXF 393
[10] = system: MDA-MB-231
[11] = system: SF-295
[12] = system: UACC-62
[13] = system: UACC-257
[14] = system: LOX IMVI
[15] = system: EKVX
[16] = system: HCT-15
[17] = system: NCI-H460
[18] = system: SNB-75
[19] = system: IGROV-1
[20] = system: OVCAR-4

SMILES	GI50 [1]	GI50 [2]	GI50 [3]	GI50 [4]	GI50 [5]	GI50 [6]	GI50 [7]	GI50 [8]	GI50 [9]	GI50 [10]	GI50 [11]	GI50 [12]	GI50 [13]	GI50 [14]	GI50 [15]	GI50 [16] [µM]	GI50 [17]	GI50 [18]	GI50 [19]	GI50 [20]
COc1cccc2nc3ccccc3nc12	87.9 µM (inactive)	79.4 µM (inactive)	> 100 µM (inactive)	74.1 µM (inactive)	46.3 µM (inactive)	94.6 µM (inactive)	71.4 µM (inactive)	> 100 µM (inactive)	39.3 µM (inactive)	67.6 µM (inactive)	80 µM (inactive)	50.9 µM (inactive)	91.2 µM (inactive)	38.8 µM (inactive)	86.7 µM (inactive)	39.1	39.8 µM (inactive)	60 µM (inactive)	–	–
CC(=O)NC1=CC(=O)C=C(Cl)C1=O	> 100 µM (inactive)	> 100 µM (inactive)	> 100 µM (inactive)	> 100 µM (inactive)	> 100 µM (inactive)	> 100 µM (inactive)	> 100 µM (inactive)	> 100 µM (inactive)	92.5 µM (inactive)	> 100 µM (inactive)	> 100 µM (inactive)	37.5 µM (inactive)	54.1 µM (inactive)	–	> 100 µM (inactive)	> 100	> 100 µM (inactive)	> 100 µM (inactive)	> 100 µM (inactive)	18.1 µM (inactive)
CO/C(=N\N=C\c1cccc(Cl)c1)c1ccncc1	> 10 µM (inactive)	> 10 µM (inactive)	–	> 10 µM (inactive)	> 10 µM (inactive)	> 10 µM (inactive)	> 10 µM (inactive)	> 10 µM (inactive)	> 10 µM (inactive)	> 10 µM (inactive)	> 10 µM (inactive)	–	> 10 µM (inactive)	> 10 µM (inactive)	> 10 µM (inactive)	> 10	> 10 µM (inactive)	–	–	> 10 µM (inactive)
Cc1[nH]n(-c2nc(-c3ccccc3)cc(=O)[nH]2)c(=O)c1CCO	> 100 µM (inactive)	> 100 µM (inactive)	> 100 µM (inactive)	> 100 µM (inactive)	> 100 µM (inactive)	> 100 µM (inactive)	> 100 µM (inactive)	> 100 µM (inactive)	> 100 µM (inactive)	> 100 µM (inactive)	> 100 µM (inactive)	> 100 µM (inactive)	> 100 µM (inactive)	> 100 µM (inactive)	> 100 µM (inactive)	> 100	> 100 µM (inactive)	–	> 100 µM (inactive)	> 100 µM (inactive)
CC(C)(C)OC(=O)N(CCCCNCc1ccc2ccccc2c1)CCCNCc1ccc2ccccc2c1	1.77 µM (inactive)	0.254 µM (active)	1.94 µM (inactive)	1.3 µM (inactive)	0.893 µM (active)	1.76 µM (inactive)	1.75 µM (inactive)	1.86 µM (inactive)	1.69 µM (inactive)	1.02 µM (active)	1.9 µM (inactive)	1.66 µM (inactive)	1.91 µM (inactive)	–	1.56 µM (inactive)	1.57	0.736 µM (active)	1.52 µM (inactive)	1.64 µM (inactive)	1.67 µM (inactive)
N#C/C(=C\c1ccccc1)C(=O)Nc1nnc(-c2ccccc2)o1	47.2 µM (inactive)	63.1 µM (inactive)	31.8 µM (inactive)	41.8 µM (inactive)	41.3 µM (inactive)	–	36.7 µM (inactive)	37.6 µM (inactive)	34 µM (inactive)	31.5 µM (inactive)	13.2 µM (inactive)	22.3 µM (inactive)	25.7 µM (inactive)	37.5 µM (inactive)	47.3 µM (inactive)	26.9	–	48.8 µM (inactive)	27.6 µM (inactive)	32.4 µM (inactive)
Cc1oc2nc(N(C)C)nc(Cl)c2c1C	> 100 µM (inactive)	> 100 µM (inactive)	–	> 100 µM (inactive)	> 100 µM (inactive)	> 100 µM (inactive)	> 100 µM (inactive)	> 100 µM (inactive)	40.6 µM (inactive)	> 100 µM (inactive)	> 100 µM (inactive)	> 100 µM (inactive)	> 100 µM (inactive)	–	34.8 µM (inactive)	> 100	> 100 µM (inactive)	3.89 µM (inactive)	49.8 µM (inactive)	32.1 µM (inactive)
O=C1ON=C2C3CC4CC12CC1(C3)C(=O)ON=C41	–	> 100 µM (inactive)	–	> 100 µM (inactive)	> 100 µM (inactive)	> 100 µM (inactive)	> 100 µM (inactive)	> 100 µM (inactive)	> 100 µM (inactive)	> 100 µM (inactive)	> 100 µM (inactive)	> 100 µM (inactive)	> 100 µM (inactive)	> 100 µM (inactive)	> 100 µM (inactive)	–	> 100 µM (inactive)	> 100 µM (inactive)	> 100 µM (inactive)	> 100 µM (inactive)
C/C1=C/C(=O)O[C@@H]2C[C@@H](CC[C@H](C)/C=C\C=C\CC1)O[C@@](O)([C@@H]1CSC(=O)N1)C2 [LATRUNCULIN A]	0.305 µM (active)	> 2.97 µM (inactive)	> 4.16 µM (inactive)	> 10 µM (inactive)	0.417 µM (active)	0.611 µM (active)	0.428 µM (active)	0.178 µM (active)	0.191 µM (active)	0.0834 µM (active)	0.262 µM (active)	0.348 µM (active)	2.51 µM (inactive)	–	0.74 µM (active)	0.52	0.8 µM (active)	0.075 µM (active)	0.133 µM (active)	1.02 µM (active)
CN1CCN(C(=S)N(C(=O)c2cccs2)c2ccccc2)CC1	> 100 µM (inactive)	> 100 µM (inactive)	–	> 100 µM (inactive)	> 100 µM (inactive)	> 100 µM (inactive)	> 100 µM (inactive)	–	> 100 µM (inactive)	> 100 µM (inactive)	> 10 µM (inactive)	> 100 µM (inactive)	> 100 µM (inactive)	> 100 µM (inactive)	–	> 100	> 100 µM (inactive)	56 µM (inactive)	> 100 µM (inactive)	> 100 µM (inactive)
O=C(Nc1nc(C23CC4CC(CC(C4)C2)C3)cs1)c1cc2cc([N+](=O)[O-])ccc2oc1=O	26.2 µM (inactive)	> 100 µM (inactive)	–	> 100 µM (inactive)	58.1 µM (inactive)	72.1 µM (inactive)	> 100 µM (inactive)	39.7 µM (inactive)	19.2 µM (inactive)	20.9 µM (inactive)	38.1 µM (inactive)	–	> 100 µM (inactive)	47.1 µM (inactive)	53 µM (inactive)	85.1	52.6 µM (inactive)	20.3 µM (inactive)	45.3 µM (inactive)	17.8 µM (inactive)
CCN(CC)CCC(=O)NC1c2ccc(Cl)cc2Oc2c(C)cccc21 (stereo not drawn)	8.53 µM (inactive)	24.2 µM (inactive)	17.6 µM (inactive)	15.6 µM (inactive)	12.9 µM (inactive)	14 µM (inactive)	17.3 µM (inactive)	> 10 µM (inactive)	–	20.8 µM (inactive)	18.6 µM (inactive)	16.9 µM (inactive)	17.1 µM (inactive)	14.5 µM (inactive)	13.4 µM (inactive)	18.7	16.6 µM (inactive)	10.2 µM (inactive)	13 µM (inactive)	14.3 µM (inactive)
CCOC(=O)[C@@H]1ON2O[C@@H](OC3CCCCC3c3ccccc3)C[C@H]3OC(=O)[C@@H]1C32 (stereo partly drawn)	> 100 µM (inactive)	66.7 µM (inactive)	> 100 µM (inactive)	> 100 µM (inactive)	> 100 µM (inactive)	–	> 100 µM (inactive)	> 100 µM (inactive)	> 100 µM (inactive)	84.7 µM (inactive)	> 100 µM (inactive)	> 100 µM (inactive)	> 100 µM (inactive)	> 100 µM (inactive)	> 100 µM (inactive)	> 100	38.1 µM (inactive)	> 100 µM (inactive)	> 100 µM (inactive)	–
Cc1ccc(CCCCCOc2ccc(C3=NCCO3)cc2)s1	> 100 µM (inactive)	> 100 µM (inactive)	> 100 µM (inactive)	> 100 µM (inactive)	> 100 µM (inactive)	> 100 µM (inactive)	> 100 µM (inactive)	> 100 µM (inactive)	> 100 µM (inactive)	> 100 µM (inactive)	> 100 µM (inactive)	> 100 µM (inactive)	> 100 µM (inactive)	–	> 100 µM (inactive)	> 100	> 100 µM (inactive)	> 100 µM (inactive)	> 100 µM (inactive)	> 100 µM (inactive)
COc1cc2c(cc1OC)C(Cc1ccccc1CCCl)=NCC2	53 µM (inactive)	24.2 µM (inactive)	> 100 µM (inactive)	36.8 µM (inactive)	6.85 µM (inactive)	55.3 µM (inactive)	> 100 µM (inactive)	> 100 µM (inactive)	43.7 µM (inactive)	> 100 µM (inactive)	33.7 µM (inactive)	34.2 µM (inactive)	50.8 µM (inactive)	–	> 100 µM (inactive)	25.1	21.9 µM (inactive)	30.3 µM (inactive)	27 µM (inactive)	45.6 µM (inactive)
